# Experimental data taken from patent US10172879B2, “Nanocomplexes for co-delivering a drug and siRNA and uses thereof” (D.R.NANO CO., LTD, priority 2015, dated 2019).
# d = 2'-deoxy (DNA)
# Assay: Serum stability assay (50% serum, 37° C., gel electrophoresis)
# Assay type: in vitro ADME, bovine
# Conditions: 50% serum media at 37° C., 0-24 h; HMplex N/P=4
# Protocol: In vitro cytotoxicity studies of HMplexes were performed against normal cells (MRC-5 and NIH-3T3) and cancer cells (MDA-MB-231) using the colorimetric MTT assay. Cells were treated with HMplexes at various concentrations for 4 h and then incubated in a serum-free medium for another 44 h after washing twice with cold PBS (pH 7.4). After washing with PBS, the cells were treated with MTT reagents and the absorbance at 540 nm was measured with a microplate reader (Spectra Max 340, Molecular Devices, Sunnyvale, Calif., USA). The complex stability of HMplexes was evaluated by a heparin polyanion competition assay and a serum stability assay. For the heparin polyanion competition assay, HMplexes containing 1 μg siRNA were incubated with varying amounts of heparin (0-200 μg) for 30 min at room temperature and then subjected to 2% agarose gel electrophoresis. The decomplexed siRNA was detected with SYBR Gold staining. For serum stability studies, HMplexes or naked siRNA were incubated in 50% FBS/PBS (pH 7.4) at 37° C. for predetermined time periods (0-24 h). Aliquots from each sample were analyzed by 2% agarose gel electrophoresis and visualized with SYBR Gold.
substance,measurement,value
"free siRNA: Custom Bcl-2 siRNA (sense Seq ID No. 1-dTdT; antisense Seq ID No. 2-dTdT), uncomplexed (sense GUACAUCCAUUAUAAGCUG; antisense CAGCUUAUAAUGGAUGUAC; RNA, 3' dTdT, backbone not given here)",degradation of siRNA in serum,completely disappeared at 24 h
